{
  "source": "PubChem BioAssay AID1919016",
  "about": "(Molecular Pharmacology Branch, DTP, NCI, 2023)",
  "test_system": "NCI-H196 complex spheroid growth, percent test/control",
  "test": "Anticancer human tumor NCI-H196 cell line growth inhibition [AhR];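 further: seven days of drug exposure starting three days after plating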;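 on viability, T/C: 100% = DMSO vehicle control wells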",
  "conditions": "for viability, T/C: stronger effect = lower value",
  "method_in_brief": "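Agents were dosed in half-log steps down from roughly clinical Cmax, or from 10 microM where Cmax was unknown, alone and with AhR antagonists. Read-out: percent test/control growth of tumor spheroids containing HUVEC and MSC stromal cells.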",
  "key": {"[1]": {"conditions": "curve of first compound, second compound 0.1 µM"}, "[2]": {"conditions": "curve of first compound, second compound 0.316 µM"}, "[3]": {"conditions": "curve of first compound, second compound 1 µM"}, "[4]": {"conditions": "curve of first compound, second compound 3.16 µM"}, "[5]": {"conditions": "curve of first compound, second compound 10 µM"}},
  "note": "Several values for one entry are separate records, joined by “and”; a condition that tells them apart may be missing. Identical values can stand only once.",
  "data": [
    {"smiles": "CCN(c1cc(-c2ccc(CN3CCOCC3)cc2)cc(C(=O)NCc2c(C)cc(C)[nH]c2=O)c1C)C1CCOCC1", "note": "+ Cc1ccccc1N=Nc1ccc(NC(=O)c2ccnn2C)c(C)c1", "values": [
      {"measurement": "IC50", "setting": "[1]", "result": "> 3", "unit": "µM"},
      {"measurement": "IC50", "setting": "[2]", "result": "> 3", "unit": "µM"},
      {"measurement": "IC50", "setting": "[3]", "result": "> 3", "unit": "µM"},
      {"measurement": "IC50", "setting": "[4]", "result": "> 3", "unit": "µM"},
      {"measurement": "IC50", "setting": "[5]", "result": "> 3", "unit": "µM"},
      {"measurement": "viability, T/C", "setting": "second compound 0.1 µM, first compound 0.00949 µM", "result": 95, "unit": "%"},
      {"measurement": "viability, T/C", "setting": "second compound 0.1 µM, first compound 0.03 µM", "result": 104, "unit": "%"},
      {"measurement": "viability, T/C", "setting": "second compound 0.1 µM, first compound 0.0949 µM", "result": 103, "unit": "%"},
      {"measurement": "viability, T/C", "setting": "second compound 0.1 µM, first compound 0.3 µM", "result": 104, "unit": "%"},
      {"measurement": "viability, T/C", "setting": "second compound 0.1 µM, first compound 0.949 µM", "result": 90.2, "unit": "%"},
      {"measurement": "viability, T/C", "setting": "second compound 0.1 µM, first compound 3 µM", "result": 89.6, "unit": "%"},
      {"measurement": "viability, T/C", "setting": "second compound 0.316 µM, first compound 0.00949 µM", "result": 104, "unit": "%"},
      {"measurement": "viability, T/C", "setting": "second compound 0.316 µM, first compound 0.03 µM", "result": 99.2, "unit": "%"},
      {"measurement": "viability, T/C", "setting": "second compound 0.316 µM, first compound 0.0949 µM", "result": 102, "unit": "%"},
      {"measurement": "viability, T/C", "setting": "second compound 0.316 µM, first compound 0.3 µM", "result": 97.3, "unit": "%"},
      {"measurement": "viability, T/C", "setting": "second compound 0.316 µM, first compound 0.949 µM", "result": 94.7, "unit": "%"},
      {"measurement": "viability, T/C", "setting": "second compound 0.316 µM, first compound 3 µM", "result": 96.3, "unit": "%"},
      {"measurement": "viability, T/C", "setting": "second compound 1 µM, first compound 0.00949 µM", "result": 98.6, "unit": "%"},
      {"measurement": "viability, T/C", "setting": "second compound 1 µM, first compound 0.03 µM", "result": 98.1, "unit": "%"},
      {"measurement": "viability, T/C", "setting": "second compound 1 µM, first compound 0.0949 µM", "result": 111, "unit": "%"},
      {"measurement": "viability, T/C", "setting": "second compound 1 µM, first compound 0.3 µM", "result": 103, "unit": "%"},
      {"measurement": "viability, T/C", "setting": "second compound 1 µM, first compound 0.949 µM", "result": 101, "unit": "%"},
      {"measurement": "viability, T/C", "setting": "second compound 1 µM, first compound 3 µM", "result": 107, "unit": "%"},
      {"measurement": "viability, T/C", "setting": "second compound 3.16 µM, first compound 0.00949 µM", "result": 93, "unit": "%"},
      {"measurement": "viability, T/C", "setting": "second compound 3.16 µM, first compound 0.03 µM", "result": 103, "unit": "%"},
      {"measurement": "viability, T/C", "setting": "second compound 3.16 µM, first compound 0.0949 µM", "result": 105, "unit": "%"},
      {"measurement": "viability, T/C", "setting": "second compound 3.16 µM, first compound 0.3 µM", "result": 98.1, "unit": "%"},
      {"measurement": "viability, T/C", "setting": "second compound 3.16 µM, first compound 0.949 µM", "result": 93.2, "unit": "%"},
      {"measurement": "viability, T/C", "setting": "second compound 3.16 µM, first compound 3 µM", "result": 96.3, "unit": "%"},
      {"measurement": "viability, T/C", "setting": "second compound 10 µM, first compound 0.00949 µM", "result": 89.9, "unit": "%"},
      {"measurement": "viability, T/C", "setting": "second compound 10 µM, first compound 0.03 µM", "result": 97.8, "unit": "%"},
      {"measurement": "viability, T/C", "setting": "second compound 10 µM, first compound 0.0949 µM", "result": 92.9, "unit": "%"},
      {"measurement": "viability, T/C", "setting": "second compound 10 µM, first compound 0.3 µM", "result": 89.7, "unit": "%"},
      {"measurement": "viability, T/C", "setting": "second compound 10 µM, first compound 0.949 µM", "result": 90.1, "unit": "%"},
      {"measurement": "viability, T/C", "setting": "second compound 10 µM, first compound 3 µM", "result": 102, "unit": "%"}
    ]},
    {"smiles": "CC(C)c1c(-c2ccccc2)nc2c(C#N)c[nH]n2c1=O", "note": "+ CC(CO)NC(=O)c1cc(-c2ccc(Cl)cc2)nn(-c2cnn(C)c2)c1=O", "values": [
      {"measurement": "IC50", "setting": "[1]", "result": "> 10", "unit": "µM"},
      {"measurement": "IC50", "setting": "[2]", "result": "> 10", "unit": "µM"},
      {"measurement": "IC50", "setting": "[3]", "result": "> 10", "unit": "µM"},
      {"measurement": "IC50", "setting": "[4]", "result": "> 10", "unit": "µM"},
      {"measurement": "IC50", "setting": "[5]", "result": "> 10", "unit": "µM"},
      {"measurement": "viability, T/C", "setting": "second compound 0.1 µM, first compound 0.0316 µM", "result": 118, "unit": "%"},
      {"measurement": "viability, T/C", "setting": "second compound 0.1 µM, first compound 0.1 µM", "result": 107, "unit": "%"},
      {"measurement": "viability, T/C", "setting": "second compound 0.1 µM, first compound 0.316 µM", "result": 111, "unit": "%"},
      {"measurement": "viability, T/C", "setting": "second compound 0.1 µM, first compound 1 µM", "result": 105, "unit": "%"},
      {"measurement": "viability, T/C", "setting": "second compound 0.1 µM, first compound 3.16 µM", "result": 104, "unit": "%"},
      {"measurement": "viability, T/C", "setting": "second compound 0.1 µM, first compound 10 µM", "result": 102, "unit": "%"},
      {"measurement": "viability, T/C", "setting": "second compound 0.316 µM, first compound 0.0316 µM", "result": 116, "unit": "%"},
      {"measurement": "viability, T/C", "setting": "second compound 0.316 µM, first compound 0.1 µM", "result": 128, "unit": "%"},
      {"measurement": "viability, T/C", "setting": "second compound 0.316 µM, first compound 0.316 µM", "result": 109, "unit": "%"},
      {"measurement": "viability, T/C", "setting": "second compound 0.316 µM, first compound 1 µM", "result": 112, "unit": "%"},
      {"measurement": "viability, T/C", "setting": "second compound 0.316 µM, first compound 3.16 µM", "result": 108, "unit": "%"},
      {"measurement": "viability, T/C", "setting": "second compound 0.316 µM, first compound 10 µM", "result": 111, "unit": "%"},
      {"measurement": "viability, T/C", "setting": "second compound 1 µM, first compound 0.0316 µM", "result": 111, "unit": "%"},
      {"measurement": "viability, T/C", "setting": "second compound 1 µM, first compound 0.1 µM", "result": 114, "unit": "%"},
      {"measurement": "viability, T/C", "setting": "second compound 1 µM, first compound 0.316 µM", "result": 117, "unit": "%"},
      {"measurement": "viability, T/C", "setting": "second compound 1 µM, first compound 1 µM", "result": 121, "unit": "%"},
      {"measurement": "viability, T/C", "setting": "second compound 1 µM, first compound 3.16 µM", "result": 118, "unit": "%"},
      {"measurement": "viability, T/C", "setting": "second compound 1 µM, first compound 10 µM", "result": 104, "unit": "%"},
      {"measurement": "viability, T/C", "setting": "second compound 3.16 µM, first compound 0.0316 µM", "result": 109, "unit": "%"},
      {"measurement": "viability, T/C", "setting": "second compound 3.16 µM, first compound 0.1 µM", "result": 111, "unit": "%"},
      {"measurement": "viability, T/C", "setting": "second compound 3.16 µM, first compound 0.316 µM", "result": 118, "unit": "%"},
      {"measurement": "viability, T/C", "setting": "second compound 3.16 µM, first compound 1 µM", "result": 114, "unit": "%"},
      {"measurement": "viability, T/C", "setting": "second compound 3.16 µM, first compound 3.16 µM", "result": 117, "unit": "%"},
      {"measurement": "viability, T/C", "setting": "second compound 3.16 µM, first compound 10 µM", "result": 110, "unit": "%"},
      {"measurement": "viability, T/C", "setting": "second compound 10 µM, first compound 0.0316 µM", "result": 116, "unit": "%"},
      {"measurement": "viability, T/C", "setting": "second compound 10 µM, first compound 0.1 µM", "result": 127, "unit": "%"},
      {"measurement": "viability, T/C", "setting": "second compound 10 µM, first compound 0.316 µM", "result": 114, "unit": "%"},
      {"measurement": "viability, T/C", "setting": "second compound 10 µM, first compound 1 µM", "result": 119, "unit": "%"},
      {"measurement": "viability, T/C", "setting": "second compound 10 µM, first compound 3.16 µM", "result": 111, "unit": "%"},
      {"measurement": "viability, T/C", "setting": "second compound 10 µM, first compound 10 µM", "result": 108, "unit": "%"}
    ]},
    {"smiles": "CC1(C)CCC(CN2CCN(c3ccc(C(=O)NS(=O)(=O)c4ccc(NCC5CCOCC5)c([N+](=O)[O-])c4)c(Oc4cnc5[nH]ccc5c4)c3)CC2)=C(c2ccc(Cl)cc2)C1", "values": [
      {"measurement": "viability, T/C", "setting": "compound 0.0316 µM", "result": "98.2% and 106% and 89%"},
      {"measurement": "viability, T/C", "setting": "compound 0.1 µM", "result": "110% and 103% and 101%"},
      {"measurement": "viability, T/C", "setting": "compound 0.316 µM", "result": "109% and 97.2% (2×)"},
      {"measurement": "viability, T/C", "setting": "compound 1 µM", "result": "109% and 103% and 96.6%"},
      {"measurement": "viability, T/C", "setting": "compound 3.16 µM", "result": "93.8% and 103% and 99.2%"},
      {"measurement": "viability, T/C", "setting": "compound 10 µM", "result": "104% and 72.5% and 89.6%"},
      {"measurement": "IC50", "setting": "curve of compound", "result": "> 10", "unit": "µM"}
    ]}
  ]
}
